According to ChEMBL document CHEMBL1201862, “PubChem BioAssay data set” (2004):
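Protocol summary: plate cells (96-well), add compound at 5 concentrations, incubate 48 h, interpolate endpoints linearly. The concentration for 50% growth inhibition is given as GI50.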 The source made the active and inactive calls. No stated cut-off is given here; in the data, active = GI50 up to about 1.1 µM and inactive = higher.

Tests used:
Assay in all cases: inhibition of tumour cell growth, NCI panel, 48 h
OVCAR-8 = test system: OVCAR-8
HOP-62 = test system: HOP-62
M19-MEL = test system: M19-MEL
SNB-78 = test system: SNB-78
SF-295 = test system: SF-295
DLD-1 = test system: DLD-1
COLO 205 = test system: COLO 205
M14 = test system: M14
MOLT-4 = test system: MOLT-4
TK-10 = test system: TK-10
NCI-H460 = test system: NCI-H460
SF-539 = test system: SF-539
UACC-62 = test system: UACC-62
CAKI-1 = test system: CAKI-1
A498 = test system: A498
786-0 = test system: 786-0
KM12 = test system: KM12
Malme-3M = test system: Malme-3M
IGROV-1 = test system: IGROV-1
ACHN = test system: ACHN
UO-31 = test system: UO-31
CCRF-CEM = test system: CCRF-CEM
SNB-19 = test system: SNB-19
RXF 631 = test system: RXF 631
OVCAR-4 = test system: OVCAR-4
NCI-H522 = test system: NCI-H522
SK-OV-3 = test system: SK-OV-3
HOP-92 = test system: HOP-92
SN12C = test system: SN12C
HCT-15 = test system: HCT-15
UACC-257 = test system: UACC-257
NCI-H226 = test system: NCI-H226
U-251 = test system: U-251
LOX IMVI = test system: LOX IMVI
DMS-114 = test system: DMS-114
SNB-75 = test system: SNB-75
HCT-116 = test system: HCT-116
HCC 2998 = test system: HCC 2998
HL-60 = test system: HL-60
SR = test system: SR
SK-MEL-2 = test system: SK-MEL-2
K562 = test system: K562
HT-29 = test system: HT-29
SK-MEL-5 = test system: SK-MEL-5
LXFL 529 = test system: LXFL 529
OVCAR-5 = test system: OVCAR-5
SF-268 = test system: SF-268
RPMI-8226 = test system: RPMI-8226
DMS-273 = test system: DMS-273
RXF 393 = test system: RXF 393
KM-20L2 = test system: KM-20L2
HOP-18 = test system: HOP-18
A549 = test system: A549
SW-620 = test system: SW-620
OVCAR-3 = test system: OVCAR-3
SK-MEL-28 = test system: SK-MEL-28
NCI-H23 = test system: NCI-H23
EKVX = test system: EKVX

C=C1C(OC(C)=O)CC(OC(C)=O)C2(C)C(OC(C)=O)C(OC(C)=O)C3=C(C)C(OC(=O)/C=C/c4ccccc4)CC(C(OC(C)=O)C12)C3(C)C (centres undefined) was tested, and the GI50 (OVCAR-8) was 46.3 µM (inactive), the GI50 (HOP-62) was 31 µM (inactive) and the GI50 (M19-MEL) was > 100 µM (inactive). For the same compound, the GI50 (SNB-78) was 38.8 µM (inactive), the GI50 (SF-295) was 23.9 µM (inactive) and the GI50 (DLD-1) was > 100 µM (inactive). For the same compound, the GI50 (COLO 205) was > 100 µM (inactive), the GI50 (M14) was > 100 µM (inactive) and the GI50 (MOLT-4) was > 100 µM (inactive). The GI50 (TK-10) was > 100 µM (inactive), the GI50 (NCI-H460) was > 100 µM (inactive) and the GI50 (SF-539) was 25.5 µM (inactive). For the same compound, the GI50 (UACC-62) was > 100 µM (inactive), the GI50 (CAKI-1) was 33.1 µM (inactive) and the GI50 (A498) was 61.1 µM (inactive). For the same compound, the GI50 (786-0) was 30.8 µM (inactive), the GI50 (KM12) was > 100 µM (inactive) and the GI50 (Malme-3M) was 59.3 µM (inactive). The GI50 (IGROV-1) was > 100 µM (inactive), the GI50 (ACHN) was 35.5 µM (inactive) and the GI50 (UO-31) was > 100 µM (inactive). For the same compound, the GI50 (CCRF-CEM) was > 100 µM (inactive), the GI50 (SNB-19) was 51.8 µM (inactive) and the GI50 (RXF 631) was 51.2 µM (inactive). For the same compound, the GI50 (OVCAR-4) was 16.7 µM (inactive), the GI50 (NCI-H522) was 68.1 µM (inactive) and the GI50 (SK-OV-3) was 30.5 µM (inactive). For the same compound, the GI50 (HOP-92) was 21.8 µM (inactive), the GI50 (SN12C) was > 100 µM (inactive) and the GI50 (HCT-15) was > 100 µM. The GI50 (UACC-257) was > 100 µM (inactive), the GI50 (NCI-H226) was 67.3 µM (inactive) and the GI50 (U-251) was 36.2 µM (inactive). The GI50 (LOX IMVI) was > 100 µM (inactive), the GI50 (DMS-114) was > 100 µM (inactive) and the GI50 (SNB-75) was 15.1 µM (inactive). For the same compound, the GI50 (HCT-116) was > 100 µM (inactive), the GI50 (HCC 2998) was > 100 µM (inactive) and the GI50 (HL-60) was > 100 µM (inactive). The GI50 (SR) was > 100 µM (inactive), the GI50 (SK-MEL-2) was 55.6 µM (inactive) and the GI50 (K562) was > 100 µM (inactive). The GI50 (HT-29) was > 100 µM (inactive), the GI50 (SK-MEL-5) was > 100 µM (inactive) and the GI50 (LXFL 529) was 51.9 µM (inactive). For the same compound, the GI50 (OVCAR-5) was > 100 µM (inactive), the GI50 (SF-268) was 26.7 µM (inactive) and the GI50 (RPMI-8226) was > 100 µM (inactive). For the same compound, the GI50 (DMS-273) was > 100 µM (inactive), the GI50 (RXF 393) was 36.4 µM (inactive) and the GI50 (KM-20L2) was > 100 µM (inactive). For the same compound, the GI50 (HOP-18) was 51.1 µM (inactive), the GI50 (A549) was > 100 µM (inactive) and the GI50 (SW-620) was > 100 µM (inactive).

In the case of Cc1cc(Cc2cc(C)c(NC(=O)C(=O)C3C(=O)NC(=S)NC3=O)c(C(C)C)c2)cc(C(C)C)c1NC(=O)C(=O)C1C(=O)NC(=S)NC1=O, the GI50 (OVCAR-8) is reported as > 100 µM (inactive), the GI50 (HOP-62) is reported as > 100 µM (inactive) and the GI50 (M19-MEL) is reported as > 100 µM (inactive). The GI50 (SNB-78) was > 100 µM (inactive), the GI50 (SF-295) was > 100 µM (inactive) and the GI50 (DLD-1) was > 100 µM (inactive). For the same compound, the GI50 (COLO 205) was > 100 µM (inactive), the GI50 (M14) was > 100 µM (inactive) and the GI50 (MOLT-4) was > 100 µM (inactive). The GI50 (TK-10) was > 100 µM (inactive), the GI50 (NCI-H460) was > 100 µM (inactive) and the GI50 (UACC-62) was > 100 µM (inactive). The GI50 (OVCAR-3) was > 100 µM (inactive), the GI50 (CAKI-1) was > 100 µM (inactive) and the GI50 (A498) was > 100 µM (inactive). For the same compound, the GI50 (SK-MEL-28) was > 100 µM (inactive), the GI50 (786-0) was > 100 µM (inactive) and the GI50 (KM12) was > 100 µM (inactive). For the same compound, the GI50 (Malme-3M) was > 100 µM (inactive), the GI50 (IGROV-1) was > 100 µM (inactive) and the GI50 (ACHN) was > 100 µM (inactive). For the same compound, the GI50 (UO-31) was > 100 µM (inactive), the GI50 (CCRF-CEM) was > 100 µM (inactive) and the GI50 (SNB-19) was > 100 µM (inactive). The GI50 (RXF 631) was > 100 µM (inactive), the GI50 (OVCAR-4) was > 100 µM (inactive) and the GI50 (NCI-H522) was > 100 µM (inactive). The GI50 (SK-OV-3) was > 100 µM (inactive), the GI50 (HOP-92) was > 100 µM (inactive) and the GI50 (SN12C) was > 100 µM (inactive). The GI50 (HCT-15) was > 100 µM, the GI50 (UACC-257) was > 100 µM (inactive) and the GI50 (NCI-H226) was > 100 µM (inactive). The GI50 (U-251) was > 100 µM (inactive), the GI50 (LOX IMVI) was > 100 µM (inactive) and the GI50 (DMS-114) was > 100 µM (inactive). For the same compound, the GI50 (SNB-75) was > 100 µM (inactive), the GI50 (NCI-H23) was > 100 µM (inactive) and the GI50 (HCT-116) was > 100 µM (inactive). For the same compound, the GI50 (HCC 2998) was > 100 µM (inactive), the GI50 (HL-60) was > 100 µM (inactive) and the GI50 (EKVX) was > 100 µM (inactive). The GI50 (SR) was > 100 µM (inactive), the GI50 (K562) was > 100 µM (inactive) and the GI50 (HT-29) was > 100 µM (inactive). For the same compound, the GI50 (LXFL 529) was > 100 µM (inactive), the GI50 (OVCAR-5) was > 100 µM (inactive) and the GI50 (SF-268) was > 100 µM (inactive). For the same compound, the GI50 (RPMI-8226) was > 100 µM (inactive), the GI50 (DMS-273) was > 100 µM (inactive) and the GI50 (RXF 393) was > 100 µM (inactive). For the same compound, the GI50 (KM-20L2) was > 100 µM (inactive), the GI50 (HOP-18) was > 100 µM (inactive) and the GI50 (A549) was > 100 µM (inactive). For the same compound, the GI50 (SW-620) was > 100 µM (inactive).
